We go through 1 compound from patent publication US20090131459A1, “2-Thioxanthine Derivatives Acting as MPO-Inhibitors” (ASTRAZENECA AB, priority 2006, published 2009).

This test addresses T1, human MPO (Homo sapiens, UniProt P05164).
T1 sequence (P05164 49-745): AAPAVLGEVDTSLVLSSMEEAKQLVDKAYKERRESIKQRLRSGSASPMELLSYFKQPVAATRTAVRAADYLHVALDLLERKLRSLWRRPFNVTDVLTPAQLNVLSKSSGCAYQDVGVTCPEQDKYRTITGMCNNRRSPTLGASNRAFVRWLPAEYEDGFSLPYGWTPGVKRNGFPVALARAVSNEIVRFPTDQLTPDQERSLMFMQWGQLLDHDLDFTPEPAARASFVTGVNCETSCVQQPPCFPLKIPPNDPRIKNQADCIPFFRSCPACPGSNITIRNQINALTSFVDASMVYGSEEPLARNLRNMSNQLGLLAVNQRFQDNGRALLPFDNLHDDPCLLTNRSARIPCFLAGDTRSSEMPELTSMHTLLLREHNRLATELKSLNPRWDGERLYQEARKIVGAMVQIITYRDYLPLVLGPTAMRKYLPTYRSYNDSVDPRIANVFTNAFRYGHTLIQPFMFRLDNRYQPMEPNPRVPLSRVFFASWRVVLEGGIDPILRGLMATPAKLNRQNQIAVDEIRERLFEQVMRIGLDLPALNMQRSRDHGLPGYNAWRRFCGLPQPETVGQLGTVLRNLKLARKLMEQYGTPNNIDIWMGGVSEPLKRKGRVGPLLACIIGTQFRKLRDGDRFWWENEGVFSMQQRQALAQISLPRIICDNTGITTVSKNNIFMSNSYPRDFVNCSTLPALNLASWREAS
Briefly: MPO inhibition screen (TMB oxidation, with or without added tyrosine). The following applies: in the presence of tyrosine. It counts as biochemical. The procedure:
Methods for the determination of MPO inhibitory activity are disclosed in patent application WO 02/090575. The pharmacological activity of compounds according to the invention was tested in the following screen in which the compounds were either tested alone or in the presence of added tyrosine:
Assay buffer: 20 mM sodium/potassium phosphate buffer pH 6.5 containing 10 mM taurine and 100 mM NaCl.
Developing reagent: 2 mM 3,3′,5,5′-tetramethylbenzidine (TMB), 200 μM KI, 200 mM acetate buffer pH 5.4 with 20% DMF.
To 10 μl of diluted compounds in assay buffer, 40 μl of human MPO (final concentration […]), with or without 20 μM tyrosine (final concentration, if present, 8 μM), was added and the mixture was incubated for 10 minutes at ambient temperature. Then 50 μl of H2O2 (final concentration 100 μM), or assay buffer alone as a control, were added. After incubation for 10 minutes at ambient temperature, the reaction was stopped by adding 10 μl 0.2 mg/ml of catalase (final concentration 18 μg/ml). The reaction mixture was left for an additional 5 minutes before 100 μl of TMB developing reagent was added. The amount of oxidised 3,3′,5,5′-tetramethylbenzidine formed was then measured after about 5 minutes using absorbance spectroscopy at about […]. IC50 values were then determined using standard procedures.

The IC50 is the concentration that inhibits the measured activity by half. Turning to `CCOC(C)Cn1c(=S)[nH]c(=O)c2[nH]cnc21` (racemic) [Example 5, 3-(2-Ethoxy-propyl)-2-thioxanthine], the IC50 was 500 nM.
